Assay results as given in publication PMC7736581, “Activation of the IRE1 RNase through remodeling of the kinase front pocket by ATP-competitive ligands” (Nature Communications, 2020).

Tests used:
Test in all cases: biochemical
Set-up in all cases: Invitrogen kinase panel: Z'Lyte activity (ATP at Km) or LanthaScreen competitive ATP-site binding, percent inhibition
[1] = target: BTK (Homo sapiens, UniProt Q06187)
[2] = target: T1, CHK1 (Homo sapiens, UniProt O14757)
T1 construct: gene CHEK1
T1 sequence (O14757 1-476): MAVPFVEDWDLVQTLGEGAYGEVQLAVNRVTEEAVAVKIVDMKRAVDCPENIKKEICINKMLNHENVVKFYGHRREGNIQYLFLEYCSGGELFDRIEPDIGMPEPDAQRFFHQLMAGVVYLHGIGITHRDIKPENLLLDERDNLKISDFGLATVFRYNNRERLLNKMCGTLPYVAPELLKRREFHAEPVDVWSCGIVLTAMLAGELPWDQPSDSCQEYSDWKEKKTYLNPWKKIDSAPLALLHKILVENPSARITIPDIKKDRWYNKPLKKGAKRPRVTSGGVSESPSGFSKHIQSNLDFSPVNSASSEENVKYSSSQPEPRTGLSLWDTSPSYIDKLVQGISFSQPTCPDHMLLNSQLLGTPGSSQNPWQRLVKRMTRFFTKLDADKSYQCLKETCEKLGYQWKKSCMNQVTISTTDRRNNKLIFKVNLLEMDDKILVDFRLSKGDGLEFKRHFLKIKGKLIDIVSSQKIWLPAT

[3] = target: T2, JNK2 (Homo sapiens, UniProt P45984)
T2 construct: gene MAPK9

[4] = target: T3, Flt3 (Homo sapiens, UniProt P36888)
T3 sequence (P36888 1-993): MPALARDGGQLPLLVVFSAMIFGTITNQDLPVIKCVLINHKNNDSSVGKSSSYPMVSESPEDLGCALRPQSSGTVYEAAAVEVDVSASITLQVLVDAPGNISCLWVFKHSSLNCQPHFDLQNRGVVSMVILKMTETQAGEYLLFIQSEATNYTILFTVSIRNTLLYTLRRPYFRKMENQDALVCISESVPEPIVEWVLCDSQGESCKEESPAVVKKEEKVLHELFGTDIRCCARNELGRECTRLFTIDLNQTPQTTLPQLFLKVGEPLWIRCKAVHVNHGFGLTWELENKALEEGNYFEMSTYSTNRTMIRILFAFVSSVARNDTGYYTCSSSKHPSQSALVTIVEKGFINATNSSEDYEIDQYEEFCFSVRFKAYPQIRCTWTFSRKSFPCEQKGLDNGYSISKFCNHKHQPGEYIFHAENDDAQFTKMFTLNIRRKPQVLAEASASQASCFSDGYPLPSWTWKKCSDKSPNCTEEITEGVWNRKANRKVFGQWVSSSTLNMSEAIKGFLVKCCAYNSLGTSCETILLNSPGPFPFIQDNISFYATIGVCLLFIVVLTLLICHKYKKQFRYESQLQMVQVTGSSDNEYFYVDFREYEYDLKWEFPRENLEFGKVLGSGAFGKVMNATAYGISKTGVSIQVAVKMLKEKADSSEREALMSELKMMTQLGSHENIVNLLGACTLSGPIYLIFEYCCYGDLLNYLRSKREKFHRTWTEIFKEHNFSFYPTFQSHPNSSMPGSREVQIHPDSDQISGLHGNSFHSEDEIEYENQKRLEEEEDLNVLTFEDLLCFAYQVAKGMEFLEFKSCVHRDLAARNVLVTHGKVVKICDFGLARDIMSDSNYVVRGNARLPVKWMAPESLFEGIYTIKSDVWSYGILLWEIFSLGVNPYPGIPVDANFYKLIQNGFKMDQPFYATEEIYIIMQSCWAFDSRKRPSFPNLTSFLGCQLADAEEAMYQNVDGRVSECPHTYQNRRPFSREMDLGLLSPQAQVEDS

[5] = target: Lck (Homo sapiens, UniProt P06239)
[6] = target: T4, ITK (Homo sapiens, UniProt Q08881)
T4 sequence (Q08881 1-620): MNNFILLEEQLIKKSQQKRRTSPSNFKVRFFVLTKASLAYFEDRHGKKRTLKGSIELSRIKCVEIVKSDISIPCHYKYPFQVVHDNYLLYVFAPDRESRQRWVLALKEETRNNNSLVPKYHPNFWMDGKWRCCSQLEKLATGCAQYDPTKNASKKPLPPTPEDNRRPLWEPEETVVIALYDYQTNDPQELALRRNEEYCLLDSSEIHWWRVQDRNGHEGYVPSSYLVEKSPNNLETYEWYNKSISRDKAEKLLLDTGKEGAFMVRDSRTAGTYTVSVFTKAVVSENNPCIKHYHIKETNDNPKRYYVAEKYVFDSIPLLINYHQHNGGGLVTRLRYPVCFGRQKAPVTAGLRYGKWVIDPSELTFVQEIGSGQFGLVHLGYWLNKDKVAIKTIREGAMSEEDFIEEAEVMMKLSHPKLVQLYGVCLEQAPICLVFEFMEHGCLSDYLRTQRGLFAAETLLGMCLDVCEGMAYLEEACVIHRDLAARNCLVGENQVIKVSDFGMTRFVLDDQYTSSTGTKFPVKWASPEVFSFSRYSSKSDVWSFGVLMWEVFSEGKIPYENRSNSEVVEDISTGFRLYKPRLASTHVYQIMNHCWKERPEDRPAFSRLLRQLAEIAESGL

[7] = target: T5, ERK2 (Homo sapiens, UniProt P28482)
T5 construct: gene MAPK1

[8] = target: Src (Homo sapiens, UniProt P12931)
Sequence of Src (P12931 whole entry): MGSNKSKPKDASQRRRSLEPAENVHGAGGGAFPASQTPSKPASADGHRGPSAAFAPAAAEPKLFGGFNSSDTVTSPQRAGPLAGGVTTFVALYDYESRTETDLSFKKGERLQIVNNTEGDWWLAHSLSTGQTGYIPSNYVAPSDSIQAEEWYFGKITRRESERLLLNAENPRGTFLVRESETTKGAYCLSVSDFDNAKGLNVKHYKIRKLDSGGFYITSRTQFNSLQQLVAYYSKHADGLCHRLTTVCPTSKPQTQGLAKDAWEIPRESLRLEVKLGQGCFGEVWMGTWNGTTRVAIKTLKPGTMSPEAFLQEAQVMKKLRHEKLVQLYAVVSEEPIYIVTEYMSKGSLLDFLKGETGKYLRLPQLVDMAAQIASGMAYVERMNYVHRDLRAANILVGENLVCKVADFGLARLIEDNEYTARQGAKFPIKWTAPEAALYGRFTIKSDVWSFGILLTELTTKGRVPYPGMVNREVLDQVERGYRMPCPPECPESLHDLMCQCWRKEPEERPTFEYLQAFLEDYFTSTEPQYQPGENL

Sequence of BTK (Q06187 whole entry): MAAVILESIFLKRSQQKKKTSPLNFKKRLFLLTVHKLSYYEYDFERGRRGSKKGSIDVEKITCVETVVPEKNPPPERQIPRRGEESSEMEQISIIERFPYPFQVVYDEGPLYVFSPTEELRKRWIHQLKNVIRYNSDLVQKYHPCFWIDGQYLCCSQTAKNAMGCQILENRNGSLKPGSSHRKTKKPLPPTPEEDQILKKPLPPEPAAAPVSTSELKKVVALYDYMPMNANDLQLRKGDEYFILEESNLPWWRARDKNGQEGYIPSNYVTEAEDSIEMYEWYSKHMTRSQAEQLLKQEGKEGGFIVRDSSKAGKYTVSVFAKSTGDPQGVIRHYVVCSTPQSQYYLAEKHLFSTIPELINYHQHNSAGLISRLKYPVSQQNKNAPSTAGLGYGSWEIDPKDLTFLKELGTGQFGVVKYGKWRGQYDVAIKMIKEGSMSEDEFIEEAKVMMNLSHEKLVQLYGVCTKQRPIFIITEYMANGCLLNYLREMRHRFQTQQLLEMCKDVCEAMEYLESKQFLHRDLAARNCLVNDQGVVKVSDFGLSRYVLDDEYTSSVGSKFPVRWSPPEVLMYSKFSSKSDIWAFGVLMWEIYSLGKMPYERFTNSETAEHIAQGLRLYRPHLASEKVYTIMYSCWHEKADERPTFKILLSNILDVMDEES
T2 sequence (P45984 whole entry): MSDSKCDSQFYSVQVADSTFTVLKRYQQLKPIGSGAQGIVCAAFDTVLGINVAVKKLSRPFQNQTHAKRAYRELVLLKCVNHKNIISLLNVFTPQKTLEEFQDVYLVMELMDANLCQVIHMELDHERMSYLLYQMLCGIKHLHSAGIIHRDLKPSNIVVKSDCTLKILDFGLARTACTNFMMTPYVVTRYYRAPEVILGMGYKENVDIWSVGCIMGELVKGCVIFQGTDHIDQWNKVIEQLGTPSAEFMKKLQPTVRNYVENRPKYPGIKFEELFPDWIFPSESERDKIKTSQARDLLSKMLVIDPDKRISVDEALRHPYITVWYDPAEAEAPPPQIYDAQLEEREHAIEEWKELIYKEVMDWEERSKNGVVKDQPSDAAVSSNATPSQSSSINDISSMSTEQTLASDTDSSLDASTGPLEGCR
Sequence of Lck (P06239 whole entry): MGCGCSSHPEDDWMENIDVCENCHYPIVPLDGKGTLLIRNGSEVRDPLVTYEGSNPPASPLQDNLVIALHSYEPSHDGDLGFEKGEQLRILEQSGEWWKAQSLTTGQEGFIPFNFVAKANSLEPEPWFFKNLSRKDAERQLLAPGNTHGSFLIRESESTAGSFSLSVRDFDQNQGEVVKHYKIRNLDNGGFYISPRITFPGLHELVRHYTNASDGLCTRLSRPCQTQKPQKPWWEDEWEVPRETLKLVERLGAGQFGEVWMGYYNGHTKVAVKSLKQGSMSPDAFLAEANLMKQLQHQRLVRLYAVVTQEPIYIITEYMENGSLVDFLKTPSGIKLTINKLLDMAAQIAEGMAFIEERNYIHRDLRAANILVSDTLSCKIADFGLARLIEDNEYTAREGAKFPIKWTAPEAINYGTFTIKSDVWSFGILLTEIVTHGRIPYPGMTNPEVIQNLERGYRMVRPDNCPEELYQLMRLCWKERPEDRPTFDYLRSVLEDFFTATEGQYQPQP
T5 sequence (P28482 whole entry): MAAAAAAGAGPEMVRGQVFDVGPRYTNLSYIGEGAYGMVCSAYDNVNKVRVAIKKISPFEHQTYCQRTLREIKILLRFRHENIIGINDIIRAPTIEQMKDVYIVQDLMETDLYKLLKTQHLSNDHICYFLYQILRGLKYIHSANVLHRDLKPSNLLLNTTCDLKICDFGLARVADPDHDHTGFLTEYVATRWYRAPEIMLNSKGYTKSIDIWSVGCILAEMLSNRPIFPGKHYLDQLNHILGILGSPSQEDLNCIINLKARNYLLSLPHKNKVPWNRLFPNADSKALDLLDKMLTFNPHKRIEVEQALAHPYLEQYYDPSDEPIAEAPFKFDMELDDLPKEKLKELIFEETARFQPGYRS

Row | Compound | inhibition at 1 µM [1] | inhibition at 1 µM [2] | inhibition at 1 µM [3] | inhibition at 1 µM [4] | inhibition at 1 µM [5] | inhibition at 1 µM [6] | inhibition at 1 µM [7] | inhibition at 1 µM [8]
1 | CCOC(=O)Nc1cccc2c(Oc3ncccc3-c3ccnc(N[C@H]4CCCNC4)n3)c(C)ccc12 [G-1749] | 1.5% | 7.5% | 79% | 8% | 13.5% | 5% | 6% | 28%
2 | CC#CC(=O)Nc1cccc2c(Oc3ncccc3-c3ccnc(N[C@H]4CCCNC4)n3)c(C)ccc12 [G-7658] | 5.5% | 4% | 72% | 16.5% | -28.5% | 0% | 2% | 22.5%
3 | O=c1cc(-c2n[nH]c3ncc(-c4c(F)cccc4F)cc23)nc(N2CCC(O)CC2)[nH]1 [G-9807] | 35.9% | 94.8% | 91.3% | 98.2% | 87.2% | 81.3% | 78.3% | 52.5%
